Measurements from the supplement of paper PMC11208160.

Experiment: recombinant barcode read abundance after kanamycin selection (control-corrected) (log10(CPM+1)); higher = more efficient recombination; sequences stand for … in AGTGCAGAGAAAATCGGCCAGTTTTCTCTGCCTGCAGTCCGCATGCCGT…AGATTTATGCAGCGGACTGCCTTTCTCCCAAAGTGATAAACCGGACAGTATCATGGACCGGTTTTCCCGGTAATCCGTATTTGCAAGGTTGGTTTCACT; site = the 11-nt target
Method in brief: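 Recombination efficiency was calculated from barcode counts at recombinant junctions, normalized to counts per million, averaged and corrected by the control. Each value is given as log10(CPM+1). The constructs were Gibson-cloned oligos (promoter, target, barcode, J23119-driven first 104 bridge RNA bases) in a vector with the remaining 73 bp and a T7-inducible recombinase, co-electroporated into E. coli with a donor plasmid and plated in duplicate on chloramphenicol/ampicillin LB agar (control) or chloramphenicol/ampicillin/kanamycin with 0.1 mM IPTG.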
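Also: IS621 recombinase and bridge RNA in Escherichia coli cells.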

Sequence	recombinant barcode read abundance (log10)
TGGACGTCTTGGGTTCTAACCTGTTGCCT (site TGGACGTCTAG)	0.865
TGGACTTCTTGGGTTCTAACCTGTTGCTC (site TGGACTTCTCA)	0.24
TGGACTTCTTGGGTTCTAACCTGTTGCTC (site TGGACTTCTGA)	0.141
TGGCAGACTTGGGTTCTAACCTGTTGCCT (site TGGCAGACTAG)	0.215
TGGCAGACTTGGGTTCTAACCTGTTGCCT (site TGGCAGCCTAG)	0.263
TGGCAGACTTGGGTTCTAACCTGTTGCCT (site TGGCAGGCTAG)	0.0442
TGGCAGACTTGGGTTCTAACCTGTTGCCT (site TGGCAGTCTAG)	0.232
TGGCAGCCTTGGGTTCTAACCTGTTGCCT (site TGGCAGACTAG)	0.0766
TGGCAGCCTTGGGTTCTAACCTGTTGCCT (site TGGCAGCCTAG)	0.216
TGGCAGCCTTGGGTTCTAACCTGTTGCCT (site TGGCAGGCTAG)	0.231
TGGCAGCCTTGGGTTCTAACCTGTTGCCT (site TGGCAGTCTAG)	0.0934
TGGCGTGCTTGGGTTCTAACCTGTTGCCT (site TGGCGTGCTAG)	0.382
TGGCGTGCTTGGGTTCTAACCTGTTGCCT (site TGTTGTGCTAG)	0.118
TGGCTGTCTTGGGTTCTAACCTGTTGCCT (site TGGCTGTCTAG)	1.2
TGGCTGTCTTGGGTTCTAACCTGTTGCCT (site TGGTTGTCTAG)	0.0561
TGGTACCCTTGGGTTCTAACCTGTTGCTA (site GTTACTACTCG)	0.0129
TGGTACCCTTGGGTTCTAACCTGTTGCTA (site TGGTACCCTTA)	1.36
TGGTAGTCTTGGGTTCTAACCTGTTGCGT (site AAAGCTACTTA)	0.0198
TGGTAGTCTTGGGTTCTAACCTGTTGCGT (site TGGTAGTCTAC)	2.57
TGGTATACTTGGGTTCTAACCTGTTGCCT (site TGGTATACTAG)	0.241
TGGTATACTTGGGTTCTAACCTGTTGCCT (site TGGTATCCTAG)	0.0279
TGGTATACTTGGGTTCTAACCTGTTGCCT (site TGGTATGCTAG)	0.183
TGGTATACTTGGGTTCTAACCTGTTGCCT (site TGGTATTCTAG)	0.122
TGGTGTGCTTGGGTTCTAACCTGTTGCCA (site TAGTGTCCTTG)	0.0537
TGGTGTGCTTGGGTTCTAACCTGTTGCCA (site TGGTGTGCTTG)	0.267
TGTAAGGCTTGGGTTCTAACCTGTTGCTT (site TGTAAGACTCA)	0.142

Sequence	recombinant barcode read abundance (log10)
TGTAAGGCTTGGGTTCTAACCTGTTGCTT (site TGTAAGGCTAA)	0.27
TGTAATCCTTGGGTTCTAACCTGTTGCCT (site TGTAATACTAG)	0.327
TGTAATCCTTGGGTTCTAACCTGTTGCCT (site TGTAATCCTAG)	0.025
TGTAATCCTTGGGTTCTAACCTGTTGCCT (site TGTAATGCTAG)	0.032
TGTAATCCTTGGGTTCTAACCTGTTGCCT (site TGTAATTCTAG)	0.0105
TGTAATGCTTGGGTTCTAACCTGTTGCCT (site TGTAATACTAG)	0.0123
TGTAATGCTTGGGTTCTAACCTGTTGCCT (site TGTAATCCTAG)	0.181
TGTAATGCTTGGGTTCTAACCTGTTGCCT (site TGTAATGCTAG)	0.912
TGTAATGCTTGGGTTCTAACCTGTTGCCT (site TGTAATTCTAG)	0.181
TGTAATTCTTGGGTTCTAACCTGTTGCCT (site TGTAATACTAG)	0.139
TGTAATTCTTGGGTTCTAACCTGTTGCCT (site TGTAATCCTAG)	0.0849
TGTAATTCTTGGGTTCTAACCTGTTGCCT (site TGTAATGCTAG)	0
TGTAATTCTTGGGTTCTAACCTGTTGCCT (site TGTAATTCTAG)	0.18
TGTCAAACTTGGGTTCTAACCTGTTGCGT (site TGTCAAACTAC)	0.838
TGTCAAACTTGGGTTCTAACCTGTTGCGT (site TGTCAACCTAC)	0.0278
TGTCGAGCTTGGGTTCTAACCTGTTGCCG (site TGTAGAGCTCG)	0.0366
TGTCGAGCTTGGGTTCTAACCTGTTGCCG (site TGTCGAGCTCG)	0.107
TGTCGAGCTTGGGTTCTAACCTGTTGCCG (site TGTGGAGCTCG)	0.0604
TGTCGAGCTTGGGTTCTAACCTGTTGCCG (site TGTTGAGCTCG)	0.106
TGTCGCTCTTGGGTTCTAACCTGTTGCCT (site TGACGCTCTAG)	0.0464
TGTCGCTCTTGGGTTCTAACCTGTTGCCT (site TGCCGCTCTAG)	0.0379
TGTCGCTCTTGGGTTCTAACCTGTTGCCT (site TGGCGCTCTAG)	0.129
TGTCGCTCTTGGGTTCTAACCTGTTGCCT (site TGTCGCTCTAG)	1.1
TGTCGGACTTGGGTTCTAACCTGTTGCAA (site TGTCGGACTAT)	0.146
TGTCGGACTTGGGTTCTAACCTGTTGCAA (site TGTCGGACTCT)	0.149
TGTCGGACTTGGGTTCTAACCTGTTGCAA (site TGTCGGACTGT)	0.0423

Sequence	recombinant barcode read abundance (log10)
TGTCGGACTTGGGTTCTAACCTGTTGCAA (site TGTCGGACTTT)	0.421
TGTCGGACTTGGGTTCTAACCTGTTGCAT (site TGTCGGACTAT)	1.32
TGTCGGACTTGGGTTCTAACCTGTTGCAT (site TGTCGGACTCT)	0.18
TGTCGGACTTGGGTTCTAACCTGTTGCAT (site TGTCGGACTGT)	0.0199
TGTCGGACTTGGGTTCTAACCTGTTGCAT (site TGTCGGACTTT)	0.0384
TGTCTACCTTGGGTTCTAACCTGTTGCTA (site TGTCTACCTTA)	0.103
TGTCTACCTTGGGTTCTAACCTGTTGCTA (site TGTCTCCCTAA)	0.209
TGTCTCCCTTGGGTTCTAACCTGTTGCGT (site GAAGAGGCTTG)	0.154
TGTCTCCCTTGGGTTCTAACCTGTTGCGT (site TGTCTCCCTAC)	1.04
TGTCTGTCTTGGGTTCTAACCTGTTGCTT (site TGTCTGTCTAA)	0.186
TGTCTGTCTTGGGTTCTAACCTGTTGCTT (site TGTCTGTCTTA)	0.0372
TGTGACTCTTGGGTTCTAACCTGTTGCCT (site TGAGACTCTAG)	0.088
TGTGACTCTTGGGTTCTAACCTGTTGCCT (site TGCGACTCTAG)	0.0199
TGTGACTCTTGGGTTCTAACCTGTTGCCT (site TGGGACTCTAG)	0.0547
TGTGACTCTTGGGTTCTAACCTGTTGCCT (site TGTGACTCTAG)	0.912
TGTGAGCCTTGGGTTCTAACCTGTTGCGA (site CTGCGCTCTAT)	0.0373
TGTGAGCCTTGGGTTCTAACCTGTTGCGA (site TGTGAGCCTTC)	0.748
TGTGCACCTTGGGTTCTAACCTGTTGCAC (site TGTGCACCTGT)	0.32
TGTGCACCTTGGGTTCTAACCTGTTGCAC (site TGTGCTCCTCT)	0.0746
TGTGCGACTTGGGTTCTAACCTGTTGCAC (site TGAGCTACTGT)	0.0835
TGTGCGACTTGGGTTCTAACCTGTTGCAC (site TGTGCGACTGT)	0.0665
TGTGCGTCTTGGGTTCTAACCTGTTGCCT (site AGTGCGTCTAG)	0.0921
TGTGCGTCTTGGGTTCTAACCTGTTGCCT (site CGTGCGTCTAG)	0.136
TGTGCGTCTTGGGTTCTAACCTGTTGCCT (site GGTGCGTCTAG)	0.0172
TGTGCGTCTTGGGTTCTAACCTGTTGCCT (site TGTGCGTCTAG)	0.801
